According to patent US8629143B2, “Potassium channel modulators” (AbbVie Inc., priority 2009, dated 2014):

How the values were obtained:
[1] = system: Adult male Sprague-Dawley rats; assay: Spinal nerve ligation (SNL) model of neuropathic pain; assay type: in vivo; settings: rat SNL model (L5/L6 ligation), about 30 mg/kg, tactile allodynia
Excerpt: (§1) Adult male Sprague-Dawley rats (250-300 g body weight, Charles River Laboratories, Portage, Mich.) were used. Animal handling and experimental protocols were approved by the Institutional Animal Care and Use Committee (IACUC) at Abbott Laboratories. For all surgical procedures, animals were maintained under isoflurane anesthesia (4-5% to induce, 1-3% to maintain), and the incision sites were sterilized using a 10% povidone-iodine solution prior to and after surgeries.
Tactile (mechanical) allodynia was measured using calibrated von Frey filaments (Stoelting, Wood Dale, Ill.) as described in Chaplan, S. R., F. W. Bach, J. M. Pogrel, J. M. Chung and T. L. Yaksh, 1994, Quantitative assessment of tactile allodynia in the rat paw, J. Neurosci. Methods, 53, 55. Rats were placed into inverted individual plastic containers (20×12.5×20 cm) on top of a suspended wire mesh grid, and acclimated to the test chambers for 20 minutes. The von Frey filaments were presented perpendicularly to the plantar surface of the selected hind paw, and then held in this position for approximately 8 sec with enough force to cause a slight bend in the filament. Positive responses included an abrupt withdrawal of the hind paw from the stimulus, or flinching behavior immediately following removal of the stimulus. A 50% withdrawal threshold was determined using an up-down procedure (Dixon, W. J., 1980, Efficient analysis of experimental observations, Ann. Rev. Pharmacol. Toxicol., 20, 441). […] Tactile allodynia thresholds were also assessed in several control groups, including naive, sham-operated, and saline infused animals as well as in the contralateral paws of nerve-injured rats. To evaluate the anti-nociceptive effects, animals were administered vehicle or test compound and tactile allodynia was assessed 30 minutes after i.p. administration.
A model of spinal nerve ligation-induced (SNL model) neuropathic pain as originally described by Kim and Chung (Kim, S. H. and J. M. Chung, 1992, Pain 50, 355) was used to test a compound of the present application The left L5 and L6 spinal nerves of the rat were isolated adjacent to the vertebral column and tightly ligated with a 5-0 silk suture distal to the DRG, and care taken to avoid injury of the L4 spinal nerve. The same procedure was performed on Sham rats, but without nerve ligation. All animals were allowed to recover for at least one week and not more than three weeks prior to assessment of tactile allodynia.

[2] = molecular target: T1, KCNQ 2/3 channels (HEK293 cells stably expressing human KCNQ2 and KCNQ3 subunits) (Homo sapiens, UniProt O43525+O43526); assay: KCNQ2/3 channel activation, thallium flux FLIPR assay with BTC-AM dye; assay type: cell-based; settings: for Emax: HEK293, maximum response relative to the response produced by 10 μM retigabine (set at 100%), read-out: Max. %; for EC50: HEK293 cells expressing human KCNQ2 and KCNQ3, thallium flux, FLIPR
T1 construct: expressed in transfected cells; host or cells: HEK293
Procedure, shortened: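 HEK293 cells stably expressing human KCNQ2/KCNQ3 were loaded with BTC-AM (3 μg/mL, 2 h, RT) and preincubated with compound for 4 min in pH 7.3 gluconate buffer containing 0.1 mM ouabain. Flux was triggered by 6 mM TlNO3/10 mM K2SO4 and read for 3 min; EC50 came from summed responses over basal, with maximum relative to 10 μM retigabine (100%).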

[3] = system: Adult male Sprague-Dawley rats; assay: Capsaicin-induced secondary mechanical hypersensitivity; assay type: in vivo; settings: rat, about 30 mg/kg i.p., tactile allodynia 30 minutes after dosing, 180 minutes post-capsaicin
Excerpt: as §1
Rats were allowed to acclimate to the study room for 1 h. […] Secondary mechanical hyperalgesia was measured at the heel away from the site of injection at 180 minutes following capsaicin (Joshi et al 2006, Neuroscience 143, 587-596). […]
Tactile (mechanical) allodynia was measured using calibrated von Frey filaments (Stoelting, Wood Dale, Ill.) as described in Chaplan, S. R., F. W. Bach, J. M. Pogrel, J. M. Chung and T. L. Yaksh, 1994, Quantitative assessment of tactile allodynia in the rat paw, J. Neurosci. […] A 50% withdrawal threshold was determined using an up-down procedure (Dixon, W. J., 1980, Efficient analysis of experimental observations, Ann. Rev. Pharmacol. Toxicol., 20, 441). […] Tactile allodynia thresholds were also assessed in several control groups, including naive, sham-operated, and saline infused animals as well as in the contralateral paws of nerve-injured rats. […]
Tactile allodynia was measured as described above.

| Structure (SMILES) | Emax [2] [%] | EC50 [2] [nM] | change in paw withdrawal latency versus vehicle [1] | change in paw withdrawal latency versus vehicle [3] |
| --- | --- | --- | --- | --- |
| O=C(C[C@H]1C[C@@H]2CC[C@H]1C2)Nn1nc(-c2ccc(C(F)(F)F)cc2)c2ccccc2c1=O (racemic) [Example 150, (±)-2-(exo-bicyclo[2.2.1]hept-2-yl)-N-{1-oxo-4-[4-(trifluoromethyl)phenyl]phthalazin-2(1H)-yl}acetamide] | 138 | < 100 | statistically significant change | – |
| O=C(CC12CC3CC(CC(C3)C1)C2)Nn1nc(-c2ccccc2)c2ccccc2c1=O [Example 17, 2-(1-adamantyl)-N-(1-oxo-4-phenylphthalazin-2(1H)-yl)acetamide] | 205 | < 100 | – | statistically significant change |
| CC1(C)[C@@H]2C[C@H]1[C@H](CC(=O)Nn1nc(-c3ccc(Cl)cc3)c3ccccc3c1=O)C(F)(F)C2 [Example 88, N-[4-(4-chlorophenyl)-1-oxophthalazin-2(1H)-yl]-2-[(1S,2S,5R)-3,3-difluoro-6,6-dimethylbicyclo[3.1.1]hept-2-yl]acetamide] | 60 | 500 to 1000 | statistically significant change | – |
| O=C(Cc1ccc(Cl)cc1)Nn1nc(-c2ccc(Cl)cc2)c2ccccc2c1=O [Example 117, 2-(4-chlorophenyl)-N-[4-(4-chlorophenyl)-1-oxophthalazin-2(1H)-yl]acetamide] | 120 | 100 to 500 | statistically significant change | – |
| O=C(Cc1ccc(Cl)cc1)Nn1nc(-c2ccccc2)c2c(c1=O)CCC2 [Example 190, 2-(4-chlorophenyl)-N-(1-oxo-4-phenyl-1,5,6,7-tetrahydro-2H-cyclopenta[d]pyridazin-2-yl)acetamide] | 124 | 1000 to 10000 | – | – |
| O=C(Cc1ccc2c(c1)OCO2)Nn1nc(-c2ccc(Cl)cc2)c2ccccc2c1=O [Example 194, 2-(1,3-benzodioxol-5-yl)-N-[4-(4-chlorophenyl)-1-oxophthalazin-2(1H)-yl]acetamide] | 248 | 500 to 1000 | – | – |

Second part, led by results:

| Emax [2] [%] | EC50 [2] [nM] | Structure (SMILES) | change in paw withdrawal latency versus vehicle [1] | change in paw withdrawal latency versus vehicle [3] |
| --- | --- | --- | --- | --- |
| 100 | 100 to 500 | O=C(Cc1ccc(Cl)cc1)Nn1nc(-c2ccc(Br)cc2)c2ccccc2c1=O [Example 3, N-[4-(4-bromophenyl)-1-oxophthalazin-2(1H)-yl]-2-(4-chlorophenyl)acetamide] | – | statistically significant change |
| 101 | 100 to 500 | O=C(Cc1ccccc1)Nn1nc(-c2ccc(Cl)cc2)c2ccccc2c1=O [Example 91, N-[4-(4-chlorophenyl)-1-oxophthalazin-2(1H)-yl]-2-phenylacetamide] | statistically significant change | – |
| 25 | > 10000 | CSCC(=O)Nn1nc(C(F)(F)F)c2ccccc2c1=O [Example 191, 2-(methylthio)-N-[1-oxo-4-(trifluoromethyl)phthalazin-2(1H)-yl]acetamide] | – | – |
| 155 | 100 to 500 | O=C(CSC12CC3CC(CC(C3)C1)C2)Nn1nc(C(F)(F)F)c2ccccc2c1=O [Example 192, 2-(adamantan-1-ylthio)-N-[1-oxo-4-(trifluoromethyl)phthalazin-2(1H)-yl]acetamide] | – | – |
| 161 | 100 to 500 | O=C(CSC12CC3CC(CC(C3)C1)C2)Nn1nc(-c2ccccc2)c2ccccc2c1=O [Example 193, 2-(adamantan-1-ylthio)-N-(1-oxo-4-phenylphthalazin-2(1H)-yl)acetamide] | – | – |
